According to PubChem BioAssay AID1259407 (Chemical Carcinogenesis Research Information System (CCRIS), 2018):
Activity calls are given as the source filed them. No rule for the calls is given here.

System: CCRIS mutagenicity, Ames/micronucleus/aberration tests
Experiment: CCRIS mutagenicity studies
[1] = Test System: AMES SALMONELLA TYPHIMURIUM, Strain/Indicator: TA98, Metabolic Activation: NONE, Method: STANDARD PLATE
[2] = Test System: AMES SALMONELLA TYPHIMURIUM, Strain/Indicator: TA100, Metabolic Activation: NONE, Method: STANDARD PLATE
[3] = Test System: AMES SALMONELLA TYPHIMURIUM, Strain/Indicator: TA1537, Metabolic Activation: NONE, Method: STANDARD PLATE
[4] = Test System: AMES SALMONELLA TYPHIMURIUM, Strain/Indicator: TA98, Metabolic Activation: NONE, Method: PREINCUBATION
[5] = Test System: AMES SALMONELLA TYPHIMURIUM, Strain/Indicator: TA100, Metabolic Activation: NONE, Method: PREINCUBATION
[6] = Test System: AMES SALMONELLA TYPHIMURIUM, Strain/Indicator: TA1535, Metabolic Activation: NONE, Method: PREINCUBATION
[7] = Test System: AMES SALMONELLA TYPHIMURIUM, Strain/Indicator: TA1537, Metabolic Activation: NONE, Method: PREINCUBATION

## CC(C)CCCCCCOC(=O)CCCCC(=O)OCCCCCCC(C)C
Test System: AMES SALMONELLA TYPHIMURIUM, Strain/Indicator: TA98, Metabolic Activation: HAMSTER, LIVER, S-9, AROCLOR 1254, Method: STANDARD PLATE
  mutagenic call: inactive; negative
[1]
  mutagenic call: inactive; negative
Test System: AMES SALMONELLA TYPHIMURIUM, Strain/Indicator: TA98, Metabolic Activation: RAT, LIVER, S-9, AROCLOR 1254, Method: STANDARD PLATE
  mutagenic call: inactive; negative
Test System: AMES SALMONELLA TYPHIMURIUM, Strain/Indicator: TA100, Metabolic Activation: HAMSTER, LIVER, S-9, AROCLOR 1254, Method: STANDARD PLATE
  mutagenic call: inactive; negative
[2]
  mutagenic call: inactive; negative
Test System: AMES SALMONELLA TYPHIMURIUM, Strain/Indicator: TA100, Metabolic Activation: RAT, LIVER, S-9, AROCLOR 1254, Method: STANDARD PLATE
  mutagenic call: inactive; negative
Test System: AMES SALMONELLA TYPHIMURIUM, Strain/Indicator: TA1535, Metabolic Activation: HAMSTER, LIVER, S-9, AROCLOR 1254, Method: STANDARD PLATE
  mutagenic call: inactive; negative
Test System: AMES SALMONELLA TYPHIMURIUM, Strain/Indicator: TA1535, Metabolic Activation: NONE, Method: STANDARD PLATE
  mutagenic call: inactive; negative
Test System: AMES SALMONELLA TYPHIMURIUM, Strain/Indicator: TA1535, Metabolic Activation: RAT, LIVER, S-9, AROCLOR 1254, Method: STANDARD PLATE
  mutagenic call: inactive; negative
Test System: AMES SALMONELLA TYPHIMURIUM, Strain/Indicator: TA1537, Metabolic Activation: HAMSTER, LIVER, S-9, AROCLOR 1254, Method: STANDARD PLATE
  mutagenic call: inactive; negative
[3]
  mutagenic call: inactive; negative
Test System: AMES SALMONELLA TYPHIMURIUM, Strain/Indicator: TA1537, Metabolic Activation: RAT, LIVER, S-9, AROCLOR 1254, Method: STANDARD PLATE
  mutagenic call: inactive; negative
Test System: AMES SALMONELLA TYPHIMURIUM, Strain/Indicator: TA1538, Metabolic Activation: HAMSTER, LIVER, S-9, AROCLOR 1254, Method: STANDARD PLATE
  mutagenic call: inactive; negative
Test System: AMES SALMONELLA TYPHIMURIUM, Strain/Indicator: TA1538, Metabolic Activation: NONE, Method: STANDARD PLATE
  mutagenic call: inactive; negative
Test System: AMES SALMONELLA TYPHIMURIUM, Strain/Indicator: TA1538, Metabolic Activation: RAT, LIVER, S-9, AROCLOR 1254, Method: STANDARD PLATE
  mutagenic call: inactive; negative
Test System: MOUSE LYMPHOMA, Strain/Indicator: L5178Y (TK+/TK-), Metabolic Activation: NONE, Method: SUSPENSION/PLATE
  mutagenic call: inactive; negative
Test System: MOUSE LYMPHOMA, Strain/Indicator: L5178Y (TK+/TK-), Metabolic Activation: RAT, LIVER, S-9, AROCLOR 1254, Method: SUSPENSION/PLATE
  mutagenic call: inactive; negative

## CN(C)C(=S)N(C)C
Test System: AMES SALMONELLA TYPHIMURIUM, Strain/Indicator: TA98, Metabolic Activation: HAMSTER, LIVER, S-9, AROCLOR 1254 (10%), Method: PREINCUBATION
  mutagenic call: inactive; negative
[4]
  mutagenic call: inactive; negative
Test System: AMES SALMONELLA TYPHIMURIUM, Strain/Indicator: TA98, Metabolic Activation: RAT, LIVER, S-9, AROCLOR 1254 (10%), Method: PREINCUBATION
  mutagenic call: inactive; negative
Test System: AMES SALMONELLA TYPHIMURIUM, Strain/Indicator: TA100, Metabolic Activation: HAMSTER, LIVER, S-9, AROCLOR 1254 (10%), Method: PREINCUBATION
  mutagenic call: inactive; negative
[5]
  mutagenic call: inactive; negative
Test System: AMES SALMONELLA TYPHIMURIUM, Strain/Indicator: TA100, Metabolic Activation: RAT, LIVER, S-9, AROCLOR 1254 (10%), Method: PREINCUBATION
  mutagenic call: inactive; negative
Test System: AMES SALMONELLA TYPHIMURIUM, Strain/Indicator: TA1535, Metabolic Activation: HAMSTER, LIVER, S-9, AROCLOR 1254 (10%), Method: PREINCUBATION
  mutagenic call: inactive; negative
[6]
  mutagenic call: inactive; negative
Test System: AMES SALMONELLA TYPHIMURIUM, Strain/Indicator: TA1535, Metabolic Activation: RAT, LIVER, S-9, AROCLOR 1254 (10%), Method: PREINCUBATION
  mutagenic call: inactive; negative
Test System: AMES SALMONELLA TYPHIMURIUM, Strain/Indicator: TA1537, Metabolic Activation: HAMSTER, LIVER, S-9, AROCLOR 1254 (10%), Method: PREINCUBATION
  mutagenic call: inactive; negative
[7]
  mutagenic call: inactive; negative
Test System: AMES SALMONELLA TYPHIMURIUM, Strain/Indicator: TA1537, Metabolic Activation: RAT, LIVER, S-9, AROCLOR 1254 (10%), Method: PREINCUBATION
  mutagenic call: inactive; negative

## Cc1ccc2nc3c(ccc4ccccc43)cc2c1
Test System: AMES SALMONELLA TYPHIMURIUM, Strain/Indicator: TA97A, Metabolic Activation: NONE, Method: PREINCUBATION
  mutagenic call: inactive; negative
[4]
  mutagenic call: inactive; negative
[5]
  mutagenic call: active; positive
Test System: AMES SALMONELLA TYPHIMURIUM, Strain/Indicator: TA102, Metabolic Activation: NONE, Method: PREINCUBATION
  mutagenic call: active; positive

## c1ccc([C@H]2N[C@@H]2c2ccccc2)cc1
[1]
  mutagenic call: inactive; negative
[2]
  mutagenic call: active; positive
[3]
  mutagenic call: inactive; negative

## CCCCCCCCc1ccc(Nc2ccc(CCCCCCCC)cc2)cc1
End Point: IN VITRO CHROMOSOMAL ABERRATIONS, Test System: CHINESE HAMSTER LUNG CELLS (CHL), Metabolic Activation: NONE
  mutagenic call: inactive; negative
End Point: IN VITRO CHROMOSOMAL ABERRATIONS, Test System: CHINESE HAMSTER LUNG CELLS (CHL), Metabolic Activation: RAT, LIVER, S-9, KC-400
  mutagenic call: inactive; negative
End Point: IN VITRO CHROMOSOMAL ABERRATIONS, Test System: CHINESE HAMSTER OVARY CELLS (CHO), Metabolic Activation: NONE
  mutagenic call: inactive; negative
End Point: IN VITRO CHROMOSOMAL ABERRATIONS, Test System: CHINESE HAMSTER OVARY CELLS (CHO), Metabolic Activation: RAT, LIVER, S-9, AROCLOR 1254
  mutagenic call: inactive; negative
End Point: IN VITRO CHROMOSOMAL ABERRATIONS, Test System: CHO-LB CELLS, Metabolic Activation: NONE
  mutagenic call: inactive; negative
End Point: IN VITRO CHROMOSOMAL ABERRATIONS, Test System: CHO-LB CELLS, Metabolic Activation: RAT, LIVER, S-9, AROCLOR 1254
  mutagenic call: inactive; negative
Test System: AMES SALMONELLA TYPHIMURIUM, Strain/Indicator: TA97, Metabolic Activation: HAMSTER, LIVER, S-9, AROCLOR 1254 (10 OR 30%), Method: PREINCUBATION
  mutagenic call: inactive; negative
Test System: AMES SALMONELLA TYPHIMURIUM, Strain/Indicator: TA97, Metabolic Activation: NONE, Method: PREINCUBATION
  mutagenic call: inactive; negative
Test System: AMES SALMONELLA TYPHIMURIUM, Strain/Indicator: TA97, Metabolic Activation: RAT, LIVER, S-9, AROCLOR 1254 (10 OR 30%), Method: PREINCUBATION
  mutagenic call: inactive; negative
Test System: AMES SALMONELLA TYPHIMURIUM, Strain/Indicator: TA98, Metabolic Activation: HAMSTER, LIVER, S-9, AROCLOR 1254 (10 OR 30%), Method: PREINCUBATION
  mutagenic call: inactive; negative
[4]
  mutagenic call: inactive; negative
Test System: AMES SALMONELLA TYPHIMURIUM, Strain/Indicator: TA98, Metabolic Activation: RAT, LIVER, S-9, AROCLOR 1254 (10 OR 30%), Method: PREINCUBATION
  mutagenic call: inactive; negative
Test System: AMES SALMONELLA TYPHIMURIUM, Strain/Indicator: TA100, Metabolic Activation: HAMSTER, LIVER, S-9, AROCLOR 1254 (10 OR 30%), Method: PREINCUBATION
  mutagenic call: inactive; negative
[5]
  mutagenic call: inactive; negative
Test System: AMES SALMONELLA TYPHIMURIUM, Strain/Indicator: TA100, Metabolic Activation: RAT, LIVER, S-9, AROCLOR 1254 (10 OR 30%), Method: PREINCUBATION
  mutagenic call: inactive; negative
Test System: AMES SALMONELLA TYPHIMURIUM, Strain/Indicator: TA1535, Metabolic Activation: HAMSTER, LIVER, S-9, AROCLOR 1254 (10 OR 30%), Method: PREINCUBATION
  mutagenic call: inactive; negative
[6]
  mutagenic call: inactive; negative
Test System: AMES SALMONELLA TYPHIMURIUM, Strain/Indicator: TA1535, Metabolic Activation: RAT, LIVER, S-9, AROCLOR 1254 (10 OR 30%), Method: PREINCUBATION
  mutagenic call: inactive; negative
Test System: AMES SALMONELLA TYPHIMURIUM, Strain/Indicator: TA1537, Metabolic Activation: HAMSTER, LIVER, S-9, AROCLOR 1254 (30%), Method: PREINCUBATION
  mutagenic call: inactive; negative
[7]
  mutagenic call: inactive; negative
Test System: AMES SALMONELLA TYPHIMURIUM, Strain/Indicator: TA1537, Metabolic Activation: RAT, LIVER, S-9, AROCLOR 1254 (30%), Method: PREINCUBATION
  mutagenic call: inactive; negative
